Laboratory results: ChEMBL document CHEMBL1201862, “PubChem BioAssay data set” (2004)
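How tested: cells in 96-well plates exposed to compound for 48 hours at five concentrations. GI50 is the concentration that inhibits growth by half.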 Calls of active or inactive are those of the source. No stated cut-off is given here; in the data, active = GI50 up to about 1.1 µM and inactive = higher.

Columns and labels:
Assay in all cases: DTP human tumour cell line panel, 48 h
SNB-19 = test system: SNB-19
A498 = test system: A498
DLD-1 = test system: DLD-1
HOP-92 = test system: HOP-92
SK-MEL-5 = test system: SK-MEL-5
SF-268 = test system: SF-268
NCI-H460 = test system: NCI-H460
HCT-15 = test system: HCT-15
EKVX = test system: EKVX
SF-539 = test system: SF-539
OVCAR-3 = test system: OVCAR-3
LOX IMVI = test system: LOX IMVI
SR = test system: SR
HCT-116 = test system: HCT-116
LXFL 529 = test system: LXFL 529
SK-MEL-28 = test system: SK-MEL-28
NCI-H23 = test system: NCI-H23
HT-29 = test system: HT-29
KM-20L2 = test system: KM-20L2
OVCAR-8 = test system: OVCAR-8
COLO 205 = test system: COLO 205
U-251 = test system: U-251
SNB-78 = test system: SNB-78
DMS-114 = test system: DMS-114
SW-620 = test system: SW-620
OVCAR-4 = test system: OVCAR-4
HCC 2998 = test system: HCC 2998
NCI-H522 = test system: NCI-H522
CCRF-CEM = test system: CCRF-CEM
HL-60 = test system: HL-60
NCI-H226 = test system: NCI-H226
RXF 393 = test system: RXF 393
KM12 = test system: KM12
IGROV-1 = test system: IGROV-1
SK-OV-3 = test system: SK-OV-3
UACC-62 = test system: UACC-62
TK-10 = test system: TK-10
SF-295 = test system: SF-295
A549 = test system: A549
M19-MEL = test system: M19-MEL
SNB-75 = test system: SNB-75
SN12C = test system: SN12C
UACC-257 = test system: UACC-257
HOP-62 = test system: HOP-62
DMS-273 = test system: DMS-273
Malme-3M = test system: Malme-3M
OVCAR-5 = test system: OVCAR-5
SK-MEL-2 = test system: SK-MEL-2
XF498 = test system: XF498
ACHN = test system: ACHN
MOLT-4 = test system: MOLT-4
M14 = test system: M14
RPMI-8226 = test system: RPMI-8226
CAKI-1 = test system: CAKI-1
786-0 = test system: 786-0
UO-31 = test system: UO-31
K562 = test system: K562
HOP-18 = test system: HOP-18

With `C/C(=N/NC(N)=S)c1ccc2ccccc2c1` the GI50 (SNB-19) was 83.2 µM (inactive), the GI50 (A498) was 42.4 µM (inactive) and the GI50 (DLD-1) was 21.2 µM (inactive). For the same molecule, the GI50 (HOP-92) was > 100 µM (inactive), the GI50 (SK-MEL-5) was 14.2 µM (inactive) and the GI50 (SF-268) was 23.3 µM (inactive). For the same molecule, the GI50 (NCI-H460) was 24.2 µM (inactive), the GI50 (HCT-15) was 22.2 µM and the GI50 (EKVX) was 0.443 µM (active). The GI50 (SF-539) was 17.1 µM (inactive), the GI50 (OVCAR-3) was 30.4 µM (inactive) and the GI50 (LOX IMVI) was 39.8 µM (inactive). The GI50 (SR) was 74.5 µM (inactive), the GI50 (HCT-116) was 23.8 µM (inactive) and the GI50 (LXFL 529) was 22.3 µM (inactive). For the same molecule, the GI50 (SK-MEL-28) was 36.1 µM (inactive), the GI50 (NCI-H23) was 29.7 µM (inactive) and the GI50 (HT-29) was 19.7 µM (inactive). For the same molecule, the GI50 (KM-20L2) was 23.7 µM (inactive), the GI50 (OVCAR-8) was 32.9 µM (inactive) and the GI50 (COLO 205) was 21.4 µM (inactive). For the same molecule, the GI50 (U-251) was 24.8 µM (inactive), the GI50 (SNB-78) was 45.5 µM (inactive) and the GI50 (DMS-114) was 17.9 µM (inactive). The GI50 (SW-620) was 33.3 µM (inactive), the GI50 (OVCAR-4) was 28.3 µM (inactive) and the GI50 (HCC 2998) was 16 µM (inactive). For the same molecule, the GI50 (NCI-H522) was 17.6 µM (inactive), the GI50 (CCRF-CEM) was 22.5 µM (inactive) and the GI50 (HL-60) was 15 µM (inactive). The GI50 (NCI-H226) was 39.8 µM (inactive), the GI50 (RXF 393) was 35.3 µM (inactive) and the GI50 (KM12) was 9.16 µM (inactive). For the same molecule, the GI50 (IGROV-1) was 32.7 µM (inactive), the GI50 (SK-OV-3) was 21.9 µM (inactive) and the GI50 (UACC-62) was 9.42 µM (inactive). The GI50 (TK-10) was 74.6 µM (inactive), the GI50 (SF-295) was 29.4 µM (inactive) and the GI50 (A549) was 24.4 µM (inactive). The GI50 (M19-MEL) was 9.79 µM (inactive), the GI50 (SNB-75) was 25.9 µM (inactive) and the GI50 (SN12C) was 32.7 µM (inactive). For the same molecule, the GI50 (UACC-257) was 41.9 µM (inactive), the GI50 (HOP-62) was 46.6 µM (inactive) and the GI50 (DMS-273) was 24.9 µM (inactive). The GI50 (Malme-3M) was 41 µM (inactive), the GI50 (OVCAR-5) was 24 µM (inactive) and the GI50 (SK-MEL-2) was 15.8 µM (inactive). The GI50 (XF498) was 82.2 µM (inactive), the GI50 (ACHN) was 55.6 µM (inactive) and the GI50 (MOLT-4) was 21.9 µM (inactive). The GI50 (M14) was 11.8 µM (inactive).

With `CN1N=CSC12C(=O)N(c1ccc(Cl)cc1)C(=O)N2c1ccc(Cl)cc1` (stereo not given) the GI50 (SNB-19) was 3.82 µM (inactive), the GI50 (A498) was 3.1 µM (inactive) and the GI50 (DLD-1) was 4.06 µM (inactive). The GI50 (HOP-92) was 3.15 µM (inactive), the GI50 (RPMI-8226) was 2.6 µM (inactive) and the GI50 (SK-MEL-5) was 3.55 µM (inactive). The GI50 (SF-268) was 5.41 µM (inactive), the GI50 (NCI-H460) was 3.27 µM (inactive) and the GI50 (EKVX) was 7.14 µM (inactive). The GI50 (SF-539) was 5.82 µM (inactive), the GI50 (CAKI-1) was 3.92 µM (inactive) and the GI50 (OVCAR-3) was 1.43 µM (inactive). The GI50 (LOX IMVI) was 3.21 µM (inactive), the GI50 (SR) was 2.75 µM (inactive) and the GI50 (HCT-116) was 3.15 µM (inactive). For the same molecule, the GI50 (LXFL 529) was 3.34 µM (inactive), the GI50 (SK-MEL-28) was 4.4 µM (inactive) and the GI50 (NCI-H23) was 2.12 µM (inactive). For the same molecule, the GI50 (HT-29) was 3.4 µM (inactive), the GI50 (KM-20L2) was 3.21 µM (inactive) and the GI50 (OVCAR-8) was 3.51 µM (inactive). For the same molecule, the GI50 (COLO 205) was 1.93 µM (inactive), the GI50 (U-251) was 3.67 µM (inactive) and the GI50 (SNB-78) was 3.98 µM (inactive). For the same molecule, the GI50 (DMS-114) was 1.87 µM (inactive), the GI50 (SW-620) was 4.52 µM (inactive) and the GI50 (OVCAR-4) was 5.24 µM (inactive). The GI50 (HCC 2998) was 3.33 µM (inactive), the GI50 (NCI-H522) was 2.05 µM (inactive) and the GI50 (CCRF-CEM) was 3.37 µM (inactive). The GI50 (HL-60) was 2.13 µM (inactive), the GI50 (NCI-H226) was 3.04 µM (inactive) and the GI50 (786-0) was 4.22 µM (inactive). For the same molecule, the GI50 (RXF 393) was 5.33 µM (inactive), the GI50 (KM12) was 3.58 µM (inactive) and the GI50 (IGROV-1) was 5.05 µM (inactive). The GI50 (SK-OV-3) was 3.95 µM (inactive), the GI50 (UACC-62) was 3.36 µM (inactive) and the GI50 (TK-10) was 3.84 µM (inactive). For the same molecule, the GI50 (SF-295) was 3.28 µM (inactive), the GI50 (A549) was 3.46 µM (inactive) and the GI50 (M19-MEL) was 3.37 µM (inactive). The GI50 (SNB-75) was 3.99 µM (inactive), the GI50 (SN12C) was 3.44 µM (inactive) and the GI50 (UACC-257) was 3.15 µM (inactive). The GI50 (UO-31) was 2.85 µM (inactive), the GI50 (HOP-62) was 3.69 µM (inactive) and the GI50 (Malme-3M) was 3.55 µM (inactive). For the same molecule, the GI50 (K562) was 2.99 µM (inactive), the GI50 (ACHN) was 2.77 µM (inactive) and the GI50 (MOLT-4) was 2.67 µM (inactive). For the same molecule, the GI50 (M14) was 5.42 µM (inactive) and the GI50 (HOP-18) was 3.43 µM (inactive).
